Test results reported in US8940310B2, “Methods of treatment using TLR7 and/or TLR9 inhibitors” (Dynavax Technologies Corporation, priority 2010, dated 2015).
Marks after values point to notes of the source that are not given here.

Tests used:
human B-cells = test: Human B-cells cultured in the presence of IRPs, IL-6
Protocol: For the human B-cell assay, B-cells were purified from total blood cells obtained from healthy donors using magnetic beads (CD19 positive). Cells were resuspended in fresh medium (RPMI 1640 with 10% fetal calf serum, 50 units/mL penicillin, 50 μg/mL streptomycin, and 2 mM glutamine). At 48 hours, supernatants were collected and cytokine levels, IL-6, were measured using immunoassay.
To further investigate the effect of IRPs on B-cell stimulatory activity, a wide variety of IRP sequences were assayed for IL-6, along with positive and negative controls. The experiment was performed as described in Example 1 using doses of IRP of either 4.0 μM or 2.0 μM. The positive control was an immunostimulatory sequence (ISS) with SEQ ID NO:157. […] The results are presented as the average normalized IL-6 response over several experiments.

[1] = High dosages of IRPs in mice (weight, histology); assay type: in vivo, BALB/c mice; conditions: for Liver: Liver changes, number of animals / Liver: Mixed cell infiltration, number of animals / Liver: No significan changes, number of animals / Right Kidney: No significant changes, number of animals / Right Kidney: Tubular basophilia, number of animals / Right Kidney: Tubular changes, number of animals: 6 animals; for Heart: No significant changes, number of animals: tissue missing in two animals
Summary of the method: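 BALB/c mice (n=5 per group) received IRPs or saline subcutaneously at 4, 20, 50 or 100 mg/kg on days 1, 4, 7 and 10. Body weight tracked over the study; at termination organ weights, tissue oligonucleotide levels and liver, kidney and heart histology were assessed.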

[2] = Monomer and tetramer formation of IRPs, size-exclusion HPLC; assay type: physicochemical; conditions: 100 mg/mL in PBS and 0.5M KCl, room temperature, three weeks
Protocol: Solutions were prepared of the by mixing 100 mg/mL of the IRP sequences in PBS and 0.5M KCl and storing at room temperature for three to five weeks. The solutions were subsequently analyzed by size-exclusion HPLC.

[3] = High dosages of IRPs in rats (weight, deaths, histology); assay type: in vivo, Sprague Dawley rats; conditions: rat; for Heart: Cell Vacuolation, number of animals / Heart: Hemorrhage, number of animals / Heart: Mononuclear Cell Infiltration, number of animals / Heart: Necrosis, number of animals / Heart: No significant changes, number of animals / Liver: Liver changes, number of animals / Liver: Mixed cell infiltration, number of animals / Liver: Necrosis, number of animals / Liver: No significant changes, number of animals / Liver: Vacuolation, number of animals / Right Kidney: Hydronephrosis, number of animals / Right Kidney: Mineralization, number of animals / Right Kidney: Necrosis, number of animals / Right Kidney: No significant changes, number of animals / Right Kidney: Tubular basophilia, number of animals / Right Kidney: Tubular changes, number of animals: 6 animals
[4] = 50 mg/kg, 0 = no change to 4 = severe
[5] = 100 mg/kg, 0 = no change to 4 = severe
[6] = 10 mg/kg, 0 = no change to 4 = severe
[7] = 90 mg/kg, 0 = no change to 4 = severe

Q: Which “Normalized IL-6 Response (Percentage of Positive Control)” value (human B-cells; Experiment # 1, Max Conc 4.0 uM) does the source give for “5′-TGCTCCTGGAGGGGTTGT-3′ (DNA, backbone not given here) [SEQ ID NO:42]” here?
A: Its value is 13%.

Q: And the “Normalized IL-6 Response (Percentage of Positive Control)” value (human B-cells; Experiment # 2, Max Conc 4.0 uM)?
A: Its value is 14%.

Q: And the “Normalized IL-6 Response (Percentage of Positive Control)” value (human B-cells; Experiment # 3, Max Conc 4.0 uM)?
A: Its value is 5%.

Q: And the “Normalized IL-6 Response (Percentage of Positive Control)” value (human B-cells; Experiment # 4, Max Conc 4.0 uM)?
A: Its value is 9%.

Q: What about the “Normalized IL-6 Response (Percentage of Positive Control)” value (human B-cells; Experiment # 5, Max Conc 4.0 uM) of the same substance?
A: Its value is 10%.

Q: And the “Normalized IL-6 Response (Percentage of Positive Control)” value (human B-cells; Experiment # 6, Max Conc 4.0 uM)?
A: Its value is 6%.

Q: What about the “Normalized IL-6 Response (Percentage of Positive Control)” value (human B-cells; Experiment # 7, Max Conc 4.0 uM) of the same substance?
A: The value was 9%.

Q: What about the “Normalized IL-6 Response (Percentage of Positive Control)” value (human B-cells; Experiment # 8, Max Conc 2.0 uM) of the same substance?
A: Its value is 8%.

Q: What about the “Normalized IL-6 Response (Percentage of Positive Control)” value (human B-cells; Experiment # 9, Max Conc 2.0 uM) of the same substance?
A: Its value is 6%.

Q: What about the “Normalized IL-6 Response (Percentage of Positive Control)” value (human B-cells; Experiment # 10, Max Conc 2.0 uM) of the same substance?
A: The value was 18%.

Q: What about the “Normalized IL-6 Response (Percentage of Positive Control)” value (human B-cells; Experiment # 11, Max Conc 2.0 uM) of the same substance?
A: The value was 10%.

Q: And the “B-cell response as evidenced by IL-6 produced” value (human B-cells; human B-cells with IRP alone, 48 hours, FIGS. 1A-B)?
A: The value was “did not induce any B-cell response”.

Q: What about the “Heart: Chronic inflammation, number of animals” value ([1]; 50 mg/kg) of the same substance?
A: Its value is 1.

Q: What about the “Heart: Mineralization, number of animals” value ([1]; 50 mg/kg) of the same substance?
A: The value was 1.

Q: And the “Heart: Chronic inflammation, mean severity score” value [1, 4]?
A: Its value is 2.0.

Q: And the “Heart: Mineralization, mean severity score” value [1, 4]?
A: The value was 3.0.

Q: And the “Liver: Liver changes, mean severity score” value [1, 4]?
A: Its value is 1.0.

Q: And the “Liver: Mixed cell infiltration, mean severity score” value [1, 4]?
A: Its value is 1.8.

Q: And the “Right Kidney: Tubular changes, mean severity score” value [1, 4]?
A: Its value is 1.0.

Q: What about the “Liver: Liver changes, number of animals” value ([1]; 50 mg/kg) of the same substance?
A: The value was 5.

Q: What about the “Liver: Mixed cell infiltration, number of animals” value ([1]; 50 mg/kg) of the same substance?
A: Its value is 4.

Q: And the “Liver: No significan changes, number of animals” value ([1]; 50 mg/kg)?
A: Its value is 0.

Q: What about the “Right Kidney: No significant changes, number of animals” value (“Right Kidney: No significant changes” for short) ([1]; 50 mg/kg) of the same substance?
A: Its value is 1.

Q: What about the “Right Kidney: Tubular basophilia, number of animals” value ([1]; 50 mg/kg) of the same substance?
A: The value was 0.

Q: And the “Right Kidney: Tubular changes, number of animals” value ([1]; 50 mg/kg)?
A: The value was 5.

Q: And the “Heart: No significant changes, number of animals” value (shortened to “Heart: No significant changes”) ([1]; 50 mg/kg)?
A: Its value is 2**.

Q: And the “Heart: Chronic inflammation, number of animals” value ([1]; 100 mg/kg)?
A: Its value is 0.

Q: And the “Heart: Mineralization, number of animals” value ([1]; 100 mg/kg)?
A: The value was 1.

Q: And the “weight loss as % gain versus pre-dose” value ([1]; 100 mg/kg SC days 1, 4, 7, 10)?
A: Its value is “but not SEQ ID NO:42 provoked weight loss”.

Q: What about the “Heart: Mineralization, mean severity score” value [1, 5] of the same substance?
A: The value was 2.0.

Q: And the “Liver: Liver changes, mean severity score” value [1, 5]?
A: The value was 1.8.

Q: And the “Liver: Mixed cell infiltration, mean severity score” value [1, 5]?
A: The value was 2.0.

Q: What about the “Right Kidney: Tubular changes, mean severity score” value [1, 5] of the same substance?
A: The value was 1.0.

Q: And the “Liver: Liver changes, number of animals” value ([1]; 100 mg/kg)?
A: Its value is 6.

Q: And the “Liver: Mixed cell infiltration, number of animals” value ([1]; 100 mg/kg)?
A: Its value is 4.

Q: And the “Liver: No significan changes, number of animals” value ([1]; 100 mg/kg)?
A: The value was 0.

Q: What about the “Right Kidney: No significant changes” value ([1]; 100 mg/kg) of the same substance?
A: The value was 0.

Q: And the “Right Kidney: Tubular basophilia, number of animals” value ([1]; 100 mg/kg)?
A: Its value is 0.

Q: What about the “Right Kidney: Tubular changes, number of animals” value ([1]; 100 mg/kg) of the same substance?
A: The value was 6.

Q: What about the “Heart: No significant changes” value ([1]; 100 mg/kg) of the same substance?
A: The value was 3**.

Q: And the “fraction in monomer form” value [2]?
A: The value was 54.01%.

Q: What about the “fraction in tetramer form” value [2] of the same substance?
A: The value was 45.99%.

Q: What about the “organ weight of the liver, heart, kidney, or spleen” value ([3]; 10 mg/kg or 100 mg/kg SC days 0, 3, 6, 9) of the same substance?
A: The value was “no significant difference”.

Q: What about the “Heart: Cell Vacuolation, number of animals” value ([3]; 10 mg/kg) of the same substance?
A: The value was 0.

Q: And the “Heart: Hemorrhage, number of animals” value ([3]; 10 mg/kg)?
A: Its value is 0.

Q: And the “Heart: Mononuclear Cell Infiltration, number of animals” value ([3]; 10 mg/kg)?
A: The value was 1.

Q: What about the “Heart: Necrosis, number of animals” value ([3]; 10 mg/kg) of the same substance?
A: Its value is 0.

Q: What about the “Heart: No significant changes” value ([3]; 10 mg/kg) of the same substance?
A: Its value is 5.

Q: And the “Liver: Liver changes, number of animals” value ([3]; 10 mg/kg)?
A: The value was 1.

Q: And the “Liver: Mixed cell infiltration, number of animals” value ([3]; 10 mg/kg)?
A: The value was 2.

Q: And the “Liver: Necrosis, number of animals” value ([3]; 10 mg/kg)?
A: Its value is 0.

Q: What about the “Liver: No significant changes, number of animals” value ([3]; 10 mg/kg) of the same substance?
A: Its value is 3.

Q: What about the “Liver: Vacuolation, number of animals” value ([3]; 10 mg/kg) of the same substance?
A: Its value is 0.

Q: What about the “Right Kidney: Hydronephrosis, number of animals” value ([3]; 10 mg/kg) of the same substance?
A: Its value is 0.

Q: What about the “Right Kidney: Mineralization, number of animals” value ([3]; 10 mg/kg) of the same substance?
A: Its value is 3.

Q: And the “Right Kidney: Necrosis, number of animals” value ([3]; 10 mg/kg)?
A: The value was 0.

Q: And the “Right Kidney: No significant changes” value ([3]; 10 mg/kg)?
A: Its value is 0.

Q: What about the “Right Kidney: Tubular basophilia, number of animals” value ([3]; 10 mg/kg) of the same substance?
A: The value was 0.

Q: And the “Right Kidney: Tubular changes, number of animals” value ([3]; 10 mg/kg)?
A: The value was 6.

Q: What about the “Heart: Mononuclear Cell Infiltration, mean severity score” value [3, 6] of the same substance?
A: The value was 2.0.

Q: And the “Liver: Liver changes, mean severity score” value [3, 6]?
A: The value was 1.0.

Q: What about the “Liver: Mixed cell infiltration, mean severity score” value [3, 6] of the same substance?
A: The value was 1.5.

Q: And the “Right Kidney: Mineralization, mean severity score” value [3, 6]?
A: Its value is 2.0.

Q: And the “Right Kidney: Tubular changes, mean severity score” value [3, 6]?
A: The value was 1.0.

Q: What about the “Kidney: tubular basophilia” value ([3]; 90 mg/kg) of the same substance?
A: The value was “occurred”.

Q: What about the “Liver: hepatocellular necrosis” value ([3]; 90 mg/kg) of the same substance?
A: Its value is “hepatocellular necrosis”.

Q: What about the “Heart: Cell Vacuolation, number of animals” value ([3]; 90 mg/kg) of the same substance?
A: The value was 0.

Q: What about the “Heart: Hemorrhage, number of animals” value ([3]; 90 mg/kg) of the same substance?
A: The value was 0.

Q: And the “Heart: Mononuclear Cell Infiltration, number of animals” value ([3]; 90 mg/kg)?
A: Its value is 0.

Q: What about the “Heart: Necrosis, number of animals” value ([3]; 90 mg/kg) of the same substance?
A: The value was 0.

Q: What about the “Heart: No significant changes” value ([3]; 90 mg/kg) of the same substance?
A: The value was 6.

Q: What about the “Liver: Liver changes, number of animals” value ([3]; 90 mg/kg) of the same substance?
A: Its value is 6.

Q: What about the “Liver: Mixed cell infiltration, number of animals” value ([3]; 90 mg/kg) of the same substance?
A: The value was 4.

Q: And the “Liver: Necrosis, number of animals” value ([3]; 90 mg/kg)?
A: Its value is 1.

Q: And the “Liver: No significant changes, number of animals” value ([3]; 90 mg/kg)?
A: The value was 0.

Q: What about the “Liver: Vacuolation, number of animals” value ([3]; 90 mg/kg) of the same substance?
A: Its value is 0.

Q: What about the “Right Kidney: Hydronephrosis, number of animals” value ([3]; 90 mg/kg) of the same substance?
A: The value was 0.

Q: And the “Right Kidney: Mineralization, number of animals” value ([3]; 90 mg/kg)?
A: The value was 1.

Q: And the “Right Kidney: Necrosis, number of animals” value ([3]; 90 mg/kg)?
A: Its value is 0.

Q: What about the “Right Kidney: No significant changes” value ([3]; 90 mg/kg) of the same substance?
A: Its value is 0.

Q: And the “Right Kidney: Tubular basophilia, number of animals” value ([3]; 90 mg/kg)?
A: Its value is 4.

Q: And the “Right Kidney: Tubular changes, number of animals” value ([3]; 90 mg/kg)?
A: The value was 6.

Q: And the “Liver: Liver changes, mean severity score” value [3, 7]?
A: Its value is 2.3.

Q: What about the “Liver: Mixed cell infiltration, mean severity score” value [3, 7] of the same substance?
A: Its value is 2.1.

Q: What about the “Liver: Necrosis, mean severity score” value [3, 7] of the same substance?
A: Its value is 3.5.

Q: And the “Right Kidney: Mineralization, mean severity score” value [3, 7]?
A: The value was 1.0.

Q: What about the “Right Kidney: Tubular basophilia, mean severity score” value [3, 7] of the same substance?
A: The value was 1.5.

Q: And the “Right Kidney: Tubular changes, mean severity score” value [3, 7]?
A: The value was 2.0.
